The values below come from PMC10714334, “Developing multispecies quorum-sensing modulators based on the Streptococcus mitis competence-stimulating peptide” (The Journal of Biological Chemistry, 2023).

Non-standard residues stand in square brackets, D forms with d. Residues, ends and D or L forms follow the SMILES beside them. No end group written: not given here. Bounds are passed on as bounds.

The term IC50 denotes the point on the concentration scale where inhibition reaches its midpoint. What is called EC50 is the concentration giving half of the maximal effect.

Assay [1] has as its target S. mitis ComD-2 receptor. The assay can be described thus: luminescence reporter competitive inhibition assay (comX expression). The note with it: same reporter strain; competition against 1 μM native S. mitis-CSP-2; 30 min at 37 °C; triplicate on three separate days. It counts as cell-based, Streptococcus mitis. As for the experimental part: As a positive control, 2 μl of S. mitis-CSP-2 and 2 μl of DMSO were added to the same well in triplicate. As a negative control, 4 μl of DMSO was added in triplicate. Then, 2 μl of 15 mg/ml D-luciferin in distilled water was added to each experimental or control well, after which 194 μl of bacteria was added, and the plate was incubated for 30 min at 37 °C. Following incubation, the A600 and luminescence of each experimental well were measured. Results were reported as percent activation, which is the ratio between the luminescence (presented as relative luminescence units, RLU/A600) of the analog and that of the positive control. […] GraphPad Prism was used to calculate the IC50 values, which are the concentration of inhibitor where the response (or binding) is reduced by half. Experiments were performed in triplicate on three separate days.
Antagonism assays were performed at 10 μM concentration of peptides against 1 µM concentration of S. mitis-CSP-2. S. mitis-CSP-2 (1 µM) was used as the positive control (100%) while DMSO as the negative control (0%). For all figures, comX expression is presented as relative luminescence units (RLU) divided by measured cultural optical density (OD). Percent (%) ComD activation was measured by normalizing the RLU/OD value obtained for each peptide to that of the native S. mitis-CSP-2. The results are averages from three replicates and representative of three independent experiments. Error bars represent the standard error of the mean of nine values.
Figure S-8. Primary antagonism screening assay data for t he S. mitis-CSP-2 alanine scan and D-amino acid […]
determine its IC50 value.
Figure S-9. Primary antagonism screening assay data for t he S. mitis-CSP-2 truncated analogs . S. mitis- […]

Assay [2] deals with S. mitis ComD-2 receptor. Briefly: luminescence reporter activation assay (comX expression). Type of assay: cell-based, Streptococcus mitis. Particulars: for EC50: S. mitis luciferase reporter strain ATCC49456 PcomX luc::Spc, 30 min at 37 °C, triplicate on three separate days. The method, then:
The ability of synthetic S. mitis-CSP-2 analogs to activate the expression of S. mitis comX was determined using the constructed S. mitis luciferase reporter strain. First, bacteria from the S. mitis luciferase reporter strain freezer stock were streaked onto a Todd-Hewitt broth supplemented with 0.5% yeast extract (THY) agar plate containing 5% horse serum and spectinomycin at a final concentration of 200 μg/ml. The plate was incubated overnight in a CO2 incubator (37 °C with 5% CO2). Fresh colonies were transferred to Tryptic soy broth supplemented with spectinomycin at a final concentration of 200 μg/ml, and the culture was incubated at 37 °C in a 5% CO2-supplemented atmosphere and grown overnight (16 h) until the culture reached an absorbance at 600 nm (optical density at 600 nm [A600]) of 0.45. Overnight cultures of the S. mitis reporter strain at A600 0.45 were diluted 1:10 in Tryptic soy broth and the liquid cultures were incubated in a CO2 incubator for 30 to 45 min, until the bacteria reached early exponential stage (A600 ∼ 0.2) as determined by using a plate reader. During incubation, clear-bottom white 96-well microtiter plates were prepared for the activation assays. An initial activation screening was performed at a high peptide concentration (10,000 nM) for all the S. mitis-CSP-2 analogs (Figs. S1–S7). For each experimental sample, a total of 2 μl of a 1 mM CSP stock solution in dimethyl sulfoxide (DMSO) was added in triplicate to the clear-bottom white 96-well microtiter plate. A total of 2 μl of DMSO was added in triplicate and served as the negative control, and 2 μl of a 1 mM stock of native S. mitis-CSP-2 was added in triplicate as a positive control. In the dark, 2 μl of a 15 mg/ml D-luciferin stock in distilled water was added to each well. Following the addition of synthetic CSPs and D-luciferin, 196 μl of the diluted bacterial culture was added to each well, and the plate was incubated for 30 min at 37 °C. Following incubation, the A600 and luminescence of each experimental well were measured. Results were reported as percent activation, which is the ratio between the luminescence (presented as relative luminescence units, RLU/A600) of the analog and that of the positive control. […] EC50 values, the concentration of the peptide to achieve a half maximal response, for each activator were calculated using GraphPad Prism (https://www.graphpad.com/). Experiments were performed in triplicate on three separate days.
Primary reporter gene assay data
Agonism assays were performed at a 10 µM concentration of synthetic CSP. S. mitis-CSP-2 was used as the positive control (100%) while DMSO as the negative control (0%). For all figures, comX expression is presented as relative luminescence units (RLU) divided by measured cultural optical density (OD). Percent (%) ComD activation was measured by normalizing the RLU/OD value obtained for each peptide to that of the native S. mitis-CSP-2. The results are averages from three replicates and representative of three independent experiments. Error bars represent the standard error of the mean of nine values.
Figure S-1. Primary agonism screening assay data for the S. mitis-CSP-2 alanine scan analogs. Peptides […]
(1 picture or pasted object on this page, not shown here)
Background: A reporter such as luciferase makes a cellular process visible.

Assay [3] concerns the target pneumococcus ComD2 receptor. Particulars: read-out: EC50, S. pneumoniae ComD2; cited from earlier work. From the text:
(§1) Table 5 EC50 or IC50 values of select Streptococcus mitis-CSP-2–based pneumococcal QS modulators against the pneumococcus ComD1 and ComD2 and the S. mitis ComD-2 receptors ^a | column: Streptococcus pneumoniae ^b / ComD2 / EC50 or IC50∗ (nM) || In our previous work, we utilized the S. mitis-CSP-2 scaffold to develop analogs capable of modulating the two pneumococcal ComD receptors at low nanomolar concentrations ([2]). We wanted to evaluate whether the optimization of the S. mitis-CSP-2 scaffold to the pneumococcus ComD receptors affected the ability of the modified analogs to interact with the S. mitis ComD-2 receptor.

In assay [4] the target is pneumococcus ComD1 receptor. The note with it: read-out: EC50, S. pneumoniae ComD1; cited from earlier work.
Source text: as §1, with “/ ComD1” for “/ ComD2”

`CC[C@H](C)[C@H](NC(=O)[C@H](C)N)C(=O)N[C@@H](CCCNC(=N)N)C(=O)N[C@@H](CCC(N)=O)C(=O)N[C@H](C(=O)N[C@@H](Cc1c[nH]cn1)C(=O)N[C@@H](CC(N)=O)C(=O)N[C@H](C(=O)N[C@@H](Cc1ccccc1)C(=O)N[C@H](Cc1ccccc1)C(=O)N[C@H](CC(N)=O)C(=O)N[C@@H](Cc1ccccc1)C(=O)N[C@@H](Cc1ccccc1)C(=O)N[C@@H](CCCCN)C(=O)N[C@@H](CCCNC(=N)N)C(=O)N[C@@H](CCCNC(=N)N)C(=O)O)[C@@H](C)CC)[C@@H](C)O` [S. mitis-CSP-2-E1Af10n11] (H-AIRQTHNIF[dF][dN]FFKRR-OH; N-terminus and C-terminus assumed) showed an IC50 at S. mitis ComD-2 receptor [1] of over 1000 nM.
Turning to `CC[C@H](C)[C@H](NC(=O)[C@H](CC(N)=O)NC(=O)[C@@H](Cc1c[nH]cn1)NC(=O)[C@@H](NC(=O)[C@H](CCC(N)=O)NC(=O)[C@H](CCCNC(=N)N)NC(=O)[C@@H](NC(=O)[C@@H](N)CCC(=O)O)[C@@H](C)CC)[C@@H](C)O)C(=O)N[C@@H](Cc1ccccc1)C(=O)N[C@@H](Cc1ccccc1)C(=O)N[C@@H](CC(N)=O)C(=O)N[C@@H](Cc1ccccc1)C(=O)N[C@@H](Cc1ccccc1)C(=O)N[C@@H](CCCCN)C(=O)N[C@@H](CCCNC(=N)N)C(=O)N[C@@H](CCCNC(=N)N)C(=O)O` [S. mitis-CSP-2-h6] (H-EIRQT[dH]NIFFNFFKRR-OH; N-terminus and C-terminus assumed), the EC50 at S. mitis ComD-2 receptor [2] is over 1000 nM.
Still for that read-out and setting: as for `CC[C@H](C)[C@H](NC(=O)[C@@H](N)CCC(=O)O)C(=O)N[C@@H](CCCNC(=N)N)C(=O)N[C@@H](CCC(N)=O)C(=O)N[C@H](C(=O)N[C@@H](Cc1c[nH]cn1)C(=O)N[C@H](CC(N)=O)C(=O)N[C@H](C(=O)N[C@@H](Cc1ccccc1)C(=O)N[C@@H](Cc1ccccc1)C(=O)N[C@@H](CC(N)=O)C(=O)N[C@@H](Cc1ccccc1)C(=O)N[C@@H](Cc1ccccc1)C(=O)N[C@@H](CCCCN)C(=O)N[C@@H](CCCNC(=N)N)C(=O)N[C@@H](CCCNC(=N)N)C(=O)O)[C@@H](C)CC)[C@@H](C)O` [S. mitis-CSP-2-n7] (H-EIRQTH[dN]IFFNFFKRR-OH; N-terminus and C-terminus assumed), the figure is over 1000 nM.
The same measure, in the same setting: in the case of `CC[C@H](C)[C@H](NC(=O)[C@H](CC(N)=O)NC(=O)[C@H](Cc1c[nH]cn1)NC(=O)[C@@H](NC(=O)[C@@H](CCC(N)=O)NC(=O)[C@H](CCCNC(=N)N)NC(=O)[C@@H](NC(=O)[C@@H](N)CCC(=O)O)[C@@H](C)CC)[C@@H](C)O)C(=O)N[C@@H](Cc1ccccc1)C(=O)N[C@@H](Cc1ccccc1)C(=O)N[C@@H](CC(N)=O)C(=O)N[C@@H](Cc1ccccc1)C(=O)N[C@@H](Cc1ccccc1)C(=O)N[C@@H](CCCCN)C(=O)N[C@@H](CCCNC(=N)N)C(=O)N[C@@H](CCCNC(=N)N)C(=O)O` [S. mitis-CSP-2-q4] (H-EIR[dQ]THNIFFNFFKRR-OH; N-terminus and C-terminus assumed) it was over 1000 nM.
Same read-out and setting: in the case of `CC[C@H](C)[C@H](NC(=O)[C@H](CC(N)=O)NC(=O)[C@H](Cc1c[nH]cn1)NC(=O)[C@H](NC(=O)[C@H](CCC(N)=O)NC(=O)[C@H](CCCNC(=N)N)NC(=O)[C@@H](NC(=O)[C@@H](N)CCC(=O)O)[C@@H](C)CC)[C@H](C)O)C(=O)N[C@@H](Cc1ccccc1)C(=O)N[C@@H](Cc1ccccc1)C(=O)N[C@@H](CC(N)=O)C(=O)N[C@@H](Cc1ccccc1)C(=O)N[C@@H](Cc1ccccc1)C(=O)N[C@@H](CCCCN)C(=O)N[C@@H](CCCNC(=N)N)C(=O)N[C@@H](CCCNC(=N)N)C(=O)O` [S. mitis-CSP-2-t5] (H-EIRQ[dT]HNIFFNFFKRR-OH; N-terminus and C-terminus assumed) it was over 1000 nM.
Consider “AIRQTHNIFFNAFKRR [S. mitis-CSP-2-E1AF12A]”, for which the IC50 at S. mitis ComD-2 receptor [1] is over 1000 nM.
Same read-out and setting: as for “AIRQTHNIFFNFAKRR [S. mitis-CSP-2-E1AF13A]”, the figure is over 1000 nM.
On S. mitis ComD-2 receptor [2], EIRQTANIFFNFFKRR [S. mitis-CSP-2-H6A] displayed an EC50 of over 1000 nM.
Still for that read-out and setting: in the case of EIRQTHNIAFNFFKRR [S. mitis-CSP-2-F9A] it was over 1000 nM.
“EIRQTHNIFFNFF [S. mitis-CSP-2-des-K14R15R16, truncated analog of S. mitis-CSP-2]”: the “ComD-2 activation: EC50 not determined due to the analog's low induction in primary agonism screening assay” value at S. mitis ComD-2 receptor [2] (initial screening at 10,000 nM peptide) is “complete loss of activity”.
Regarding “EMRLTHFIFFNFFKRR [S. mitis-CSP-2-I2MQ4LN7F]”, the EC50 in assay [3] is 75.6 nM; on S. mitis ComD-2 receptor [2], over 1000 nM; in assay [4], 137 nM.
Consider “EMRLTHNFFFNFFKRR [S. mitis-CSP-2-I2MQ4LI8F, S. mitis-CSP-2-based pneumococcal QS modulator from previous study]”, for which the EC50 in assay [3] is 30 nM; in assay [4], 42 nM.
Turning to “EMRLTHNIFFFFFKRR [S. mitis-CSP-2-I2MQ4LN11F]”, the figures for the EC50 (in assay [3]; at S. mitis ComD-2 receptor [2]; in assay [4]) were 188 nM, over 1000 nM and 14.8 nM, respectively.
Consider “EMRQTHFFFFNFFKRR [S. mitis-CSP-2-I2MN7FI8F]”, for which the concentration for a half-maximal effect (EC50) is 13.5 nM in assay [3], over 1000 nM at S. mitis ComD-2 receptor [2] and 63.6 nM in assay [4].
As to “EMRQTHFIFFNLFKRR [S. mitis-CSP-2-I2MN7FF12L]”, the EC50 is 112 nM in assay [3], over 1000 nM on S. mitis ComD-2 receptor [2] and 72.8 nM in assay [4].
As to “EMRQTHIFFFNFFKRR [S. mitis-CSP-2-I2MN7II8F]”, the concentration for a half-maximal effect (EC50) in assay [3] is 2.67 nM; at S. mitis ComD-2 receptor [2], over 1000 nM; in assay [4] it was 61.6 nM.
Consider “EMRQTHNFFFFFFKRR [S. mitis-CSP-2-I2MI8FN11F, S. mitis-CSP-2-based pneumococcal QS modulator from previous study]”, for which the EC50 in assay [3] was 26.2 nM; in assay [4], 6.95 nM.
As for “EMRQTHNFFFNFFKRR [S. mitis-CSP-2-I2MI8F, S. mitis-CSP-2-based pneumococcal QS modulator from previous study]”, the EC50 in assay [3] is 83.2 nM; in assay [4], 151 nM.
